# Laboratory results taken from patent US20240209028A1, “CNP COMPOUNDS” (priority 2022, published 2024).
# Starred links: 1 amine or outer side, 2 acyl side, 3 side chain; linkers in the order of their positions; H or OH if unused. Positions of bridges follow the written chain, without caps; N, C: chain ends. Residues, ends and D or L forms follow the SMILES beside them. *: point of attachment. C18 diacid = O=C(O)CCCCCCCCCCCCCCCCC(=O)*; γGlu = O=C(O)[C@H](CCC(=O)[*:2])N[*:1]; AEEA = NCCOCCOCC(=O)O
# Target: T1, human natriuretic peptide receptor 2 (hNPR2) (Homo sapiens, UniProt P20594)
# T1 construct: expressed in transfected cells; host or cells: HEK293 (ATCC CRL-1573), clone 35, co-transfected with pGloSensor-42F
# T1 sequence (P20594 23-1047): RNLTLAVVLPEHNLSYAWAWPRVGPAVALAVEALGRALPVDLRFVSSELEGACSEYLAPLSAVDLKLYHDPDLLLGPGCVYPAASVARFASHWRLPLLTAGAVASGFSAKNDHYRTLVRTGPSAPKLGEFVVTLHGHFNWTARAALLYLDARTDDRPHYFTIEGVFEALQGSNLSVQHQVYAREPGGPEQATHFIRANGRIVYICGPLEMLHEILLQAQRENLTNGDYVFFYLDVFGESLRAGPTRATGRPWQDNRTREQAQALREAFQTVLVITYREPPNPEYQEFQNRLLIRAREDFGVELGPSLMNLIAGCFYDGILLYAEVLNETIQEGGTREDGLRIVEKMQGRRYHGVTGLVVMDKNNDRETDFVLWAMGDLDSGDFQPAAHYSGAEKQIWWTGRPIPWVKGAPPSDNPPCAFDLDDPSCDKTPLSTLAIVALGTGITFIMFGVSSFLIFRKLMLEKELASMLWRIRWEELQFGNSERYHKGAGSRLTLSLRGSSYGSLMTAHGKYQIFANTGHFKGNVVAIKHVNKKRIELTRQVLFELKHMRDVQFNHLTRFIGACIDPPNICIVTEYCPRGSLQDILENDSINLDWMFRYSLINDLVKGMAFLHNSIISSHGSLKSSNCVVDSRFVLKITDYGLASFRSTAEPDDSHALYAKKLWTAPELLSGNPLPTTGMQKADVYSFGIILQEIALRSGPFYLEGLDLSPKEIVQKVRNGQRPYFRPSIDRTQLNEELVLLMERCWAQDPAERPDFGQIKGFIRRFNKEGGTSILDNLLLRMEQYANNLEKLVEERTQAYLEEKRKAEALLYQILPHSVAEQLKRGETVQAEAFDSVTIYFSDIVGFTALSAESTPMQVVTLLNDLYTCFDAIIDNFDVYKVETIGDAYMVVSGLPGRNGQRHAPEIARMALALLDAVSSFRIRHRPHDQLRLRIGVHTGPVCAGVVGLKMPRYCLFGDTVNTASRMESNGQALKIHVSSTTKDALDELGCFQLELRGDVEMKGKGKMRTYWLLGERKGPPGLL
# Assay: In vitro hNPR2 activity assay (cGMP GloSensor reporter, HEK293)
# Assay type: cell-based
# Settings: potency relative to CNP22 (0065)
# Procedure, shortened: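 Potency is the EC50 from a four-parameter logistic fit, also expressed relative to the in-plate CNP22 control (×100), with at least two replicates. Compounds (ten concentrations, […], HSA-free diluent with 1% OVA, 0.01% Tween20) were incubated 30 min at 37 °C on HEK293 cells co-expressing hNPR2 and a GloSensor cGMP luciferase. Luminescence detected with Bright-Glo.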
row,Structure (SMILES),hNPR2 0% HSA. [EC50% rel CNP] [%]
1,CC[C@H](C)[C@@H]1NC(=O)[C@H](CCCNC(=N)N)NC(=O)[C@H](CC(=O)O)NC(=O)[C@H](CC(C)C)NC(=O)[C@@H]2CCCN2C(=O)[C@H](CC(C)C)NC(=O)CNC(=O)[C@H](Cc2ccccc2)NC(=O)[C@@H](NC(=O)CNC(=O)[C@H](CCC(N)=O)NC(=O)[C@H](CO)NC(=O)[C@H](CO)NC(=O)CNC(=O)[C@H](CCCCN)NC(=O)[C@H](CCCCN)NC(=O)[C@H](CCC(N)=O)NC(=O)[C@H](C)NC(=O)CNC(=O)[C@H](CCCCN)NC(=O)[C@H](Cc2ccc(O)cc2)NC(=O)[C@H](CCCCN)NC(=O)[C@H](CCCNC(=N)N)NC(=O)[C@H](C)NC(=O)[C@@H]2CCCN2C(=O)[C@H](C)NC(=O)[C@H](CCC(N)=O)NC(=O)CNC(=O)COCCOCCNC(=O)COCCOCCNC(=O)CC[C@H](NC(=O)CC[C@H](NC(=O)CC[C@H](NC(=O)CC[C@H](NC(=O)CCCCCCCCCCCCCCCCC(=O)O)C(=O)O)C(=O)O)C(=O)O)C(=O)O)CSSC[C@@H](C(=O)O)NC(=O)CNC(=O)[C@H](CC(C)C)NC(=O)CNC(=O)[C@H](CO)NC(=O)[C@H](CC(C)C)NC(=O)[C@H](CO)NC(=O)CNC1=O [compound 1459] ({C18 diacid-γGlu-γGlu-γGlu-γGlu-AEEA-AEEA}-GQAPARKYKGAQKKGSSQGCFGLPLDRIGSLSGLGC-OH; disulfide 20-36),76.1
2,CC[C@H](C)[C@@H]1NC(=O)[C@H](CCCNC(=N)N)NC(=O)[C@H](CC(=O)O)NC(=O)[C@H](CC(C)C)NC(=O)[C@@H]2CCCN2C(=O)[C@H](CC(C)C)NC(=O)CNC(=O)[C@H](Cc2ccccc2)NC(=O)[C@@H](NC(=O)CNC(=O)[C@H](CO)NC(=O)[C@H](CO)NC(=O)[C@H](CC(C)C)NC(=O)CNC(=O)[C@@H](NC(=O)[C@H](CCCCN)NC(=O)[C@H](CCC(N)=O)NC(=O)[C@H](C)NC(=O)CNC(=O)[C@H](Cc2c[nH]cn2)NC(=O)[C@H](Cc2ccc(O)cc2)NC(=O)COCCOCCNC(=O)COCCOCCNC(=O)CC[C@H](NC(=O)CCCCCCCCCCCCCCCCC(=O)O)C(=O)O)[C@@H](C)O)CSSC[C@@H](C(=O)O)NC(=O)CNC(=O)[C@H](CC(C)C)NC(=O)CNC(=O)[C@H](CO)NC(=O)[C@H](CC(C)C)NC(=O)[C@H](CO)NC(=O)CNC1=O [compound 1302] ({C18 diacid-γGlu-AEEA-AEEA}-YHGAQKTGLSSGCFGLPLDRIGSLSGLGC-OH; disulfide 13-29),26.5
3,CC[C@H](C)[C@@H]1NC(=O)[C@H](CCCNC(=N)N)NC(=O)[C@H](CC(=O)O)NC(=O)[C@H](CC(C)C)NC(=O)[C@@H]2CCCN2C(=O)[C@H](CC(C)C)NC(=O)CNC(=O)[C@H](Cc2ccccc2)NC(=O)[C@@H](NC(=O)CNC(=O)[C@H](CCCCN)NC(=O)[C@H](CO)NC(=O)[C@H](CC(C)C)NC(=O)CNC(=O)[C@H](CCCCN)NC(=O)[C@H](CCCCN)NC(=O)[C@H](CCC(N)=O)NC(=O)[C@H](C)NC(=O)CNC(=O)[C@H](CCC(=O)O)NC(=O)[C@H](Cc2ccc(O)cc2)NC(=O)[C@H](CCCCN)NC(=O)[C@H](CCCNC(=N)N)NC(=O)[C@H](C)NC(=O)CC[C@H](NC(=O)CC[C@H](NC(=O)CC[C@H](NC(=O)CC[C@H](NC(=O)CCCCCCCCCCCCCCCCC(=O)O)C(=O)O)C(=O)O)C(=O)O)C(=O)O)CSSC[C@@H](C(=O)O)NC(=O)CNC(=O)[C@H](CC(C)C)NC(=O)CNC(=O)[C@H](CO)NC(=O)[C@H](CC(C)C)NC(=O)[C@H](CO)NC(=O)CNC1=O [compound 1385] ({C18 diacid-γGlu-γGlu-γGlu-γGlu}-ARKYEGAQKKGLSKGCFGLPLDRIGSLSGLGC-OH; disulfide 16-32),30.7
4,CC[C@H](C)[C@@H]1NC(=O)[C@H](CCCNC(=N)N)NC(=O)[C@H](CC(=O)O)NC(=O)[C@H](CC(C)C)NC(=O)[C@@H]2CCCN2C(=O)[C@H](CC(C)C)NC(=O)CNC(=O)[C@H](Cc2ccccc2)NC(=O)[C@@H](NC(=O)CNC(=O)[C@H](CO)NC(=O)[C@H](CO)NC(=O)[C@H](CC(C)C)NC(=O)CNC(=O)[C@H](CCC(=O)O)NC(=O)[C@H](CCCCN)NC(=O)[C@H](CCC(N)=O)NC(=O)[C@H](C)NC(=O)CNC(=O)[C@H](CCC(=O)O)NC(=O)[C@H](Cc2ccc(O)cc2)NC(=O)COCCOCCNC(=O)COCCOCCNC(=O)CC[C@H](NC(=O)CCCCCCCCCCCCCCCCC(=O)O)C(=O)O)CSSC[C@@H](C(=O)O)NC(=O)CNC(=O)[C@H](CC(C)C)NC(=O)CNC(=O)[C@H](CO)NC(=O)[C@H](CC(C)C)NC(=O)[C@H](CO)NC(=O)CNC1=O [compound 1289] ({C18 diacid-γGlu-AEEA-AEEA}-YEGAQKEGLSSGCFGLPLDRIGSLSGLGC-OH; disulfide 13-29),2.9
5,CC[C@H](C)[C@@H]1NC(=O)[C@H](CCCNC(=N)N)NC(=O)[C@H](CC(=O)O)NC(=O)[C@H](CC(C)C)NC(=O)[C@@H]2CCCN2C(=O)[C@H](CC(C)C)NC(=O)CNC(=O)[C@H](Cc2ccccc2)NC(=O)[C@@H](NC(=O)CNC(=O)[C@H](CO)NC(=O)[C@H](CO)NC(=O)[C@@H](NC(=O)CNC(=O)[C@@H](NC(=O)[C@H](Cc2c[nH]cn2)NC(=O)[C@H](CCC(N)=O)NC(=O)[C@H](C)NC(=O)CNC(=O)[C@H](Cc2c[nH]cn2)NC(=O)[C@H](Cc2ccc(O)cc2)NC(=O)[C@H](CCCCN)NC(=O)[C@H](CCCNC(=N)N)NC(=O)[C@H](C)NC(=O)COCCOCCNC(=O)COCCOCCNC(=O)CC[C@H](NC(=O)CC[C@H](NC(=O)CC[C@H](NC(=O)CCCCCCCCCCCCCCCCC(=O)O)C(=O)O)C(=O)O)C(=O)O)[C@@H](C)O)C(C)C)CSSC[C@@H](C(=O)O)NC(=O)CNC(=O)[C@H](CC(C)C)NC(=O)CNC(=O)[C@H](CO)NC(=O)[C@H](CC(C)C)NC(=O)[C@H](CO)NC(=O)CNC1=O [compound 1449] ({C18 diacid-γGlu-γGlu-γGlu-AEEA-AEEA}-ARKYHGAQHTGVSSGCFGLPLDRIGSLSGLGC-OH; disulfide 16-32; C-terminus assumed),110.0
6,CC[C@H](C)[C@@H]1NC(=O)[C@H](CCCNC(=N)N)NC(=O)[C@H](CC(=O)O)NC(=O)[C@H](CC(C)C)NC(=O)[C@@H]2CCCN2C(=O)[C@H](CC(C)C)NC(=O)CNC(=O)[C@H](Cc2ccccc2)NC(=O)[C@@H](NC(=O)CNC(=O)[C@H](CCC(N)=O)NC(=O)[C@H](CO)NC(=O)[C@H](CC(C)C)NC(=O)CNC(=O)[C@H](CCCCN)NC(=O)[C@H](CCCCN)NC(=O)[C@H](CCC(N)=O)NC(=O)[C@H](C)NC(=O)CNC(=O)[C@H](CCC(=O)O)NC(=O)[C@H](Cc2ccc(O)cc2)NC(=O)[C@H](CCCCN)NC(=O)[C@H](CCCNC(=N)N)NC(=O)[C@H](C)NC(=O)[C@H](CCC(N)=O)NC(=O)[C@@H]2CCCN2C(=O)[C@H](Cc2c[nH]cn2)NC(=O)[C@H](CCC(=O)O)NC(=O)[C@H](CCC(N)=O)NC(=O)COCCOCCNC(=O)COCCOCCNC(=O)CC[C@H](NC(=O)CCCCCCCCCCCCCCCCC(=O)O)C(=O)O)CSSC[C@@H](C(=O)O)NC(=O)CNC(=O)[C@H](CC(C)C)NC(=O)CNC(=O)[C@H](CO)NC(=O)[C@H](CC(C)C)NC(=O)[C@H](CO)NC(=O)CNC1=O [compound 1394] ({C18 diacid-γGlu-AEEA-AEEA}-QEHPQARKYEGAQKKGLSQGCFGLPLDRIGSLSGLGC-OH; disulfide 21-37),93.9
